Laboratory results published in the supplement of paper PMC10331698.
± gives the standard deviation of the averaged measurements.

How the values were obtained:
Experiment in all cases: level (log10 ratio to DMSO vehicle control); higher = higher biomarker level / cell amount than vehicle control
[1] = compound: O=P(O)(O)CCC(F)(F)C(F)(F)C(F)(F)C(F)(F)C(F)(F)C(F)(F)F [2-(Perfluorohexyl)ethylphosphonic acid]; conditions: in DMSO
Protocol: (§1)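 BioMAP Diversity Plus panel of 12 human primary cell co-culture systems (3C, 4H, LPS, SAg, BT, BF4T, BE3C, CASM3C, HDF3CGF, KF3CT, MyoF, Mphg). Compounds were added 1 h before stimulation and left for 24 h (MyoF 48 h; BT 72 h for soluble read-outs or 6 d for IgG). Biomarkers were read by ELISA, cytotoxicity by SRB, PBMC viability and proliferation by Alamar Blue. Each well value was divided by the mean of 8 DMSO control wells on the same plate and log10 transformed; duplicate blinded samples were tested at 4 concentrations.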

[2] = compound: O=C(O)C(F)(F)C(F)(F)C(F)(F)C(F)(F)C(F)(F)C(F)(F)C(F)(F)F [Ammonium perfluorooctanoate]; conditions: in DMSO
Protocol: as §1

[3] = compound: C=CC(=O)OCCC(F)(F)C(F)(F)C(F)(F)C(F)(F)C(F)(F)C(F)(F)C(F)(F)C(F)(F)F [8:2 Fluorotelomer acrylate]; conditions: in DMSO
Protocol: as §1

[4] = compound: C=CC(=O)OCC(F)(F)C(F)(F)C(F)(F)C(F)(F)COC(=O)C=C [1H,1H,6H,6H-Perfluorohexane-1,6-diol diacrylate]; conditions: 6700 nM; in DMSO
Protocol: as §1

[5] = compound: O=C(CC(=O)C(F)(F)C(F)(F)C(F)(F)F)c1cccs1 [(Perfluorobutyryl)-2-thenoylmethane]; conditions: in DMSO
Protocol: as §1

[6] = compound: C=CC(=O)OCC(F)(F)C(F)(F)C(F)(F)C(F)(F)C(F)(F)C(F)(F)C(F)(F)C(F)F [1H,1H,9H-Perfluorononyl acrylate]; conditions: in DMSO
Protocol: as §1

Perfluoropinacol = compound: OC(C(F)(F)F)(C(F)(F)F)C(O)(C(F)(F)F)C(F)(F)F [Perfluoropinacol]; conditions: in DMSO
Protocol: as §1

[7] = compound: FC(F)(I)C(F)(F)C(F)(F)C(F)(F)C(F)(F)C(F)(F)I [1,6-Diiodoperfluorohexane]; conditions: 6700 nM; in DMSO
Protocol: as §1

Test System | level (log10) ([1]; 6700 nM) | level (log10) ([1]; 20000 nM) | level (log10) ([1]; 60000 nM) | level (log10) ([2]; 6700 nM) | level (log10) ([2]; 20000 nM) | level (log10) ([2]; 60000 nM) | level (log10) ([3]; 6700 nM) | level (log10) ([3]; 20000 nM) | level (log10) ([3]; 60000 nM) | level (log10) [4] | level (log10) ([5]; 6700 nM) | level (log10) ([5]; 20000 nM) | level (log10) ([6]; 6700 nM) | level (log10) ([6]; 20000 nM) | level (log10) ([6]; 60000 nM) | level (log10) (Perfluoropinacol; 6700 nM) | level (log10) (Perfluoropinacol; 20000 nM) | level (log10) [7]
KF3CT:TIMP-2 | -0.0075 ± 0.012 | 0.011 | 0.013 ± 0.017 | -0.006 ± 0.0028 | -0.011 ± 0.018 | 0.0065 ± 0.025 | -0.0125 ± 0.037 | -0.02 | 0.016 ± 0.013 | -0.088 ± 0.0057 | -0.0365 ± 0.00071 | -0.05 ± 0.016 | -0.0125 ± 0.046 | -0.022 ± 0.0085 | -0.042 ± 0.011 | 0.013 ± 0.0085 | 0.0745 ± 0.0064 | -0.022
CASM3C:CD87/uPAR | -0.0295 ± 0.022 | -0.025 ± 0.014 | -0.002 ± 0.0071 | 0.003 ± 0.03 | 0.008 ± 0.0028 | 0.0045 ± 0.023 | -0.035 ± 0.021 | -0.027 ± 0.011 | -0.004 ± 0.0014 | -0.0235 ± 0.013 | -0.046 ± 0.018 | -0.0065 ± 0.005 | 0.0315 ± 0.005 | 0.017 ± 0.042 | 0.005 ± 0.0057 | -0.0245 ± 0.015 | -0.107 ± 0.018 | 0.001
BE3C:MMP-1 | 0.002 ± 0.017 | 0.0005 ± 0.026 | 0.052 ± 0.075 | 0.034 ± 0.018 | 0.113 ± 0.014 | 0.283 ± 0.041 | -0.015 ± 0.0085 | -0.013 ± 0.023 | 0.0365 ± 0.08 | -0.0035 ± 0.011 | 0.0945 ± 0.015 | -0.051 ± 0.017 | -0.023 ± 0.013 | -0.009 ± 0.027 | 0.038 ± 0.064 | 0.0275 ± 0.0021 | -0.003 ± 0.0057 | 0.014
HDF3CGF:CXCL9/MIG | -0.003 ± 0.0099 | 0.008 ± 0.017 | -0.006 ± 0.0057 | -0.0195 ± 0.0092 | -0.0085 ± 0.025 | -0.0915 ± 0.047 | -0.0115 ± 0.015 | -0.007 ± 0.011 | -0.007 ± 0.0042 | -1.14 ± 0.041 | -0.0495 ± 0.012 | -0.0855 ± 0.0064 | -0.0315 ± 0.025 | -0.083 ± 0.025 | -0.215 ± 0.071 | -0.018 ± 0.018 | -0.0675 ± 0.012 | -0.463
HDF3CGF:EGFR | -0.012 ± 0.034 | -0.0255 ± 0.005 | 0.0195 ± 0.025 | -0.095 ± 0.14 | -0.005 ± 0.05 | -0.105 ± 0.087 | -0.003 ± 0.041 | -0.028 ± 0.031 | 0.006 ± 0.011 | -0.0155 ± 0.0078 | -0.101 ± 0.073 | -0.0595 ± 0.018 | -0.019 ± 0.023 | 0.017 ± 0.0014 | 0.045 ± 0.013 | -0.029 ± 0.057 | -0.146 ± 0.038 | -0.044
BE3C:Keratin 8/18 | -0.012 ± 0.0071 | -0.0175 ± 0.0021 | 0.0115 ± 0.03 | -0.0195 ± 0.012 | -0.0215 ± 0.012 | -0.0225 ± 0.0035 | -0.013 ± 0.0014 | -0.014 ± 0.0085 | 0.0085 ± 0.033 | 0.0075 ± 0.005 | -0.0535 ± 0.025 | -0.145 ± 0.005 | -0.037 ± 0.011 | -0.0165 ± 0.005 | -0.0355 ± 0.04 | -0.0145 ± 0.00071 | -0.019 ± 0.0028 | -0.018
BE3C:tPA | -0.0765 ± 0.022 | -0.0835 ± 0.0078 | -0.0615 ± 0.086 | -0.029 ± 0.045 | -0.015 ± 0.02 | -0.07 ± 0.0085 | -0.034 ± 0.02 | -0.051 ± 0.0042 | -0.002 ± 0.04 | -0.077 ± 0.0099 | -0.1 ± 0.014 | -0.234 ± 0.011 | 0.0175 ± 0.018 | 0.0315 ± 0.0035 | 0.026 ± 0.0099 | -0.0455 ± 0.0078 | -0.224 ± 0.012 | -0.032
HDF3CGF:CD106/VCAM-1 | 0.041 ± 0.013 | 0.0625 ± 0.013 | 0 ± 0.0057 | -0.0315 ± 0.011 | -0.0065 ± 0.023 | -0.037 ± 0.0071 | 0.0005 ± 0.022 | 0.011 ± 0.0071 | 0.007 ± 0.0085 | -0.676 ± 0.061 | -0.0405 ± 0.018 | 0.025 ± 0.0042 | -0.0565 ± 0.079 | -0.29 ± 0.029 | -0.453 ± 0.14 | -0.089 ± 0.037 | -0.228 ± 0.0014 | -0.335
